Holding throughout (assay): relative viability (nuclei count vs DMSO), 5 days (fraction); higher = more cells survive
Compound in experiment [1]: C1CSC2=C(C(=O)N1)SC3=C2C=C(C=C3)O [kb NB 142-70] + Cc1nc(NC(=O)N2CCC[C@H]2C(N)=O)sc1-c1ccnc(C(C)(C)C(F)(F)F)c1 [Alpelisib] (partner 2 µM)
An outline of the steps: (§1)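 Medians of duplicate plates are given as relative viability. That measure is the nuclei count in treated wells divided by the count in vehicle wells. Counts were taken on 4× images of lung cancer cell lines in 1536-well plates, 5 days after pin-tool dosing the day after seeding with one drug alone or a fixed anchor-drug dose plus five library-drug doses (not always all listed) in √10 steps.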

Compound in experiment [2]: C1CSC2=C(C(=O)N1)SC3=C2C=C(C=C3)O [kb NB 142-70] + N=C(N)NC(=N)NCCc1ccccc1 [Phenformin] (partner 250 µM)
The method, boiled down: as §1

Compound in experiment [3]: C1CSC2=C(C(=O)N1)SC3=C2C=C(C=C3)O [kb NB 142-70] + Nc1ncn([C@H]2C[C@H](O)[C@@H](CO)O2)c(=O)n1 [Decitabine] (partner 2 µM)
The method, boiled down:
as §1

Compound in experiment [4]: NCC(=O)Nc1ccc(-n2nc(C(F)(F)F)cc2-c2ccc3c(ccc4ccccc43)c2)cc1 + CS(=O)(=O)CCNCc1ccc(-c2ccc3ncnc(Nc4ccc(OCc5cccc(F)c5)c(Cl)c4)c3c2)o1 [Lapatinib] (partner 2 µM)
An outline of the steps:
as §1

Compound in experiment [5]: NCC(=O)Nc1ccc(-n2nc(C(F)(F)F)cc2-c2ccc3c(ccc4ccccc43)c2)cc1 + O=C(CCCCCCC(=O)Nc1ccccc1)NO [Vorinostat] (partner 1 µM)
An outline of the steps:
as §1

In the case of 201T, the relative viability in experiment [1] (first compound 0.1 µM) was 1.01; in experiment [1] (first compound 1 µM), 1.02; in experiment [1] (first compound 3.162 µM), 1; in experiment [2] (first compound 0.1 µM) it was 0.453; in experiment [2] (first compound 1 µM), 0.418; in experiment [2] (first compound 3.162 µM), 0.492. The relative viability in experiment [3] (first compound 0.1 µM) was 0.892; in experiment [3] (first compound 1 µM), 0.867; in experiment [3] (first compound 3.162 µM) it was 0.825; in experiment [4] (first compound 0.02 µM), 1.04; in experiment [4] (first compound 0.06325 µM), 1.07; in experiment [4] (first compound 0.2 µM), 0.996. Moreover, the relative viability in experiment [4] (first compound 0.6325 µM) came to 1.08; in experiment [4] (first compound 2 µM), 1.04; in experiment [5] (first compound 0.02 µM), 0.926; in experiment [5] (first compound 0.06325 µM) it was 0.968; in experiment [5] (first compound 0.2 µM), 0.957; in experiment [5] (first compound 0.6325 µM) it was 0.974. The relative viability in experiment [5] (first compound 2 µM) is 0.935.

In the case of A549, the relative viability was 0.714 in experiment [1] (first compound 0.1 µM); 0.654 in experiment [1] (first compound 1 µM); 0.14 in experiment [1] (first compound 3.162 µM); 0.129 in experiment [2] (first compound 0.1 µM); 0.193 in experiment [2] (first compound 1 µM); 0.166 in experiment [2] (first compound 3.162 µM). For the same cell line, the relative viability was found to be 0.24 in experiment [3] (first compound 0.1 µM); 0.245 in experiment [3] (first compound 1 µM); 0.233 in experiment [3] (first compound 3.162 µM); 1.02 in experiment [4] (first compound 0.02 µM); 1.02 in experiment [4] (first compound 0.06325 µM); 0.994 in experiment [4] (first compound 0.2 µM). Besides, the relative viability was 1.03 in experiment [4] (first compound 0.6325 µM) and 0.95 in experiment [4] (first compound 2 µM).

With A-427, the relative viability in experiment [1] (first compound 0.1 µM) came to 1.01; in experiment [1] (first compound 1 µM), 1.23; in experiment [1] (first compound 3.162 µM), 1.11; in experiment [2] (first compound 0.1 µM), 0.466; in experiment [2] (first compound 1 µM), 0.37; in experiment [2] (first compound 3.162 µM), 0.248. The relative viability amounted to 0.579 in experiment [3] (first compound 0.1 µM); 0.568 in experiment [3] (first compound 1 µM); 0.55 in experiment [3] (first compound 3.162 µM); 1.08 in experiment [4] (first compound 0.02 µM); 1.11 in experiment [4] (first compound 0.06325 µM); 1.14 in experiment [4] (first compound 0.2 µM). The relative viability came out at 1.04 in experiment [4] (first compound 0.6325 µM); 1.11 in experiment [4] (first compound 2 µM); 0.864 in experiment [5] (first compound 0.02 µM); 0.825 in experiment [5] (first compound 0.06325 µM); 0.908 in experiment [5] (first compound 0.2 µM); 0.839 in experiment [5] (first compound 0.6325 µM). The relative viability in experiment [5] (first compound 2 µM) came out at 0.982.

Consider ABC-1, for which the relative viability in experiment [1] (first compound 0.1 µM) amounted to 1.16; in experiment [1] (first compound 1 µM), 0.932; in experiment [1] (first compound 3.162 µM), 0.796; in experiment [2] (first compound 0.1 µM), 0.223; in experiment [2] (first compound 1 µM) it was 0.24; in experiment [2] (first compound 3.162 µM), 0.166. Besides, the relative viability in experiment [3] (first compound 0.1 µM) came to 1.05; in experiment [3] (first compound 1 µM), 0.69; in experiment [3] (first compound 3.162 µM) it was 0.776; in experiment [4] (first compound 0.02 µM) it was 1.26; in experiment [4] (first compound 0.06325 µM) it was 1.01; in experiment [4] (first compound 0.2 µM), 0.983. In addition, the relative viability in experiment [4] (first compound 0.6325 µM) amounted to 1.05; in experiment [4] (first compound 2 µM) it was 1.11; in experiment [5] (first compound 0.02 µM), 0.917; in experiment [5] (first compound 0.06325 µM), 1.15; in experiment [5] (first compound 0.6325 µM), 1.08; in experiment [5] (first compound 2 µM), 1.39.

For BEN, the relative viability in experiment [1] (first compound 0.1 µM) stood at 0.922; in experiment [1] (first compound 1 µM) it was 0.982; in experiment [1] (first compound 3.162 µM) it was 0.689; in experiment [2] (first compound 0.1 µM), 0.25; in experiment [2] (first compound 1 µM), 0.263; in experiment [2] (first compound 3.162 µM), 0.239. Further, the relative viability in experiment [3] (first compound 0.1 µM) amounted to 0.776; in experiment [3] (first compound 1 µM) it was 0.741; in experiment [3] (first compound 3.162 µM), 0.588; in experiment [4] (first compound 0.02 µM) it was 0.738; in experiment [4] (first compound 0.06325 µM) it was 1.11; in experiment [4] (first compound 0.2 µM) it was 0.701. Further, the relative viability worked out at 0.708 in experiment [4] (first compound 0.6325 µM); 0.542 in experiment [4] (first compound 2 µM); 0.579 in experiment [5] (first compound 0.02 µM); 0.526 in experiment [5] (first compound 0.06325 µM); 0.56 in experiment [5] (first compound 0.2 µM); 0.593 in experiment [5] (first compound 0.6325 µM). Moreover, the relative viability in experiment [5] (first compound 2 µM) came out at 0.586.

Consider CAL-12T, for which the relative viability in experiment [1] (first compound 0.1 µM) is 1.22; in experiment [1] (first compound 1 µM), 1.5; in experiment [1] (first compound 3.162 µM) it was 0.644; in experiment [2] (first compound 0.1 µM) it was 0.565; in experiment [2] (first compound 1 µM) it was 0.601; in experiment [2] (first compound 3.162 µM) it was 0.485. For the same cell line, the relative viability was determined as 0.671 in experiment [4] (first compound 0.02 µM); 0.823 in experiment [4] (first compound 0.06325 µM); 0.672 in experiment [4] (first compound 0.2 µM); 0.709 in experiment [4] (first compound 0.6325 µM); 0.679 in experiment [4] (first compound 2 µM); 0.692 in experiment [5] (first compound 0.02 µM). For the same cell line, the relative viability is 0.822 in experiment [5] (first compound 0.06325 µM), 1.04 in experiment [5] (first compound 0.2 µM), 0.684 in experiment [5] (first compound 0.6325 µM) and 0.916 in experiment [5] (first compound 2 µM).

Consider COR-L23, for which the relative viability is 0.757 in experiment [1] (first compound 0.1 µM); 0.808 in experiment [1] (first compound 1 µM); 0.282 in experiment [1] (first compound 3.162 µM); 0.416 in experiment [2] (first compound 0.1 µM); 0.426 in experiment [2] (first compound 1 µM); 0.258 in experiment [2] (first compound 3.162 µM). The relative viability in experiment [3] (first compound 0.1 µM) turned out to be 0.409; in experiment [3] (first compound 1 µM) it was 0.465; in experiment [3] (first compound 3.162 µM), 0.246; in experiment [4] (first compound 0.02 µM) it was 0.97; in experiment [4] (first compound 0.06325 µM), 0.997; in experiment [4] (first compound 0.2 µM), 1.2. The relative viability is 0.938 in experiment [4] (first compound 0.6325 µM); 0.659 in experiment [4] (first compound 2 µM); 0.466 in experiment [5] (first compound 0.02 µM); 0.46 in experiment [5] (first compound 0.06325 µM); 0.576 in experiment [5] (first compound 0.2 µM); 0.449 in experiment [5] (first compound 0.6325 µM). Moreover, in experiment [5] (first compound 2 µM), the relative viability is 0.372.

Values taken from the supplement of paper PMC10307832.
